Experiments:
[1] = target: Klenow(exo−) DNA polymerase (Escherichia coli, UniProt P00582, D355A/E357A); test: PEP; assay type: biochemical
[2] = target: T1, Vent(exo−) DNA polymerase (Thermococcus litoralis, UniProt P30317, D141A/E143A); test: PEP; assay type: biochemical
T1 sequence (P30317 with tags, fused parts or gaps D141A/E143A): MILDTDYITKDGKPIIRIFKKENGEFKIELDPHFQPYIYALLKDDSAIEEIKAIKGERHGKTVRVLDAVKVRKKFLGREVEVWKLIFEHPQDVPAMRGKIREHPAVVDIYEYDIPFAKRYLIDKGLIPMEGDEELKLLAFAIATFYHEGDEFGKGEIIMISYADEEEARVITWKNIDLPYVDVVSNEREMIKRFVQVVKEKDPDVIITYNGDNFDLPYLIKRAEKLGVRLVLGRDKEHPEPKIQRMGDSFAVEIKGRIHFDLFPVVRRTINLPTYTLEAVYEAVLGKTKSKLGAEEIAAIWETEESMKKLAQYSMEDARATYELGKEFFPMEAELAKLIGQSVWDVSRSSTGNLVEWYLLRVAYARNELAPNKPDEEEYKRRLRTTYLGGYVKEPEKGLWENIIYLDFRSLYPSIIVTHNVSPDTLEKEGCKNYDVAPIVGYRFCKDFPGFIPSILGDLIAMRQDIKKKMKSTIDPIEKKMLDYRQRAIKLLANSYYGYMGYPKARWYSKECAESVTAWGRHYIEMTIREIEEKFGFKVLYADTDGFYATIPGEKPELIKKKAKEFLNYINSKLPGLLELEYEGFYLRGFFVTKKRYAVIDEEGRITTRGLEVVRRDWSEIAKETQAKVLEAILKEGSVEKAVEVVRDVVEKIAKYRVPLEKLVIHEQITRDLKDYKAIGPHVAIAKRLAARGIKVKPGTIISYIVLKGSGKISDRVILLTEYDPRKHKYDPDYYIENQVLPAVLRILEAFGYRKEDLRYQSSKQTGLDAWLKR

[3] = target: T2, DeepVent(exo−) DNA polymerase (Pyrococcus sp. GB-D, UniProt Q51334, D141A/E143A); test: PEP; assay type: biochemical, Pyrococcus species GB-D
T2 sequence (Q51334 with tags, fused parts or gaps D141A/E143A): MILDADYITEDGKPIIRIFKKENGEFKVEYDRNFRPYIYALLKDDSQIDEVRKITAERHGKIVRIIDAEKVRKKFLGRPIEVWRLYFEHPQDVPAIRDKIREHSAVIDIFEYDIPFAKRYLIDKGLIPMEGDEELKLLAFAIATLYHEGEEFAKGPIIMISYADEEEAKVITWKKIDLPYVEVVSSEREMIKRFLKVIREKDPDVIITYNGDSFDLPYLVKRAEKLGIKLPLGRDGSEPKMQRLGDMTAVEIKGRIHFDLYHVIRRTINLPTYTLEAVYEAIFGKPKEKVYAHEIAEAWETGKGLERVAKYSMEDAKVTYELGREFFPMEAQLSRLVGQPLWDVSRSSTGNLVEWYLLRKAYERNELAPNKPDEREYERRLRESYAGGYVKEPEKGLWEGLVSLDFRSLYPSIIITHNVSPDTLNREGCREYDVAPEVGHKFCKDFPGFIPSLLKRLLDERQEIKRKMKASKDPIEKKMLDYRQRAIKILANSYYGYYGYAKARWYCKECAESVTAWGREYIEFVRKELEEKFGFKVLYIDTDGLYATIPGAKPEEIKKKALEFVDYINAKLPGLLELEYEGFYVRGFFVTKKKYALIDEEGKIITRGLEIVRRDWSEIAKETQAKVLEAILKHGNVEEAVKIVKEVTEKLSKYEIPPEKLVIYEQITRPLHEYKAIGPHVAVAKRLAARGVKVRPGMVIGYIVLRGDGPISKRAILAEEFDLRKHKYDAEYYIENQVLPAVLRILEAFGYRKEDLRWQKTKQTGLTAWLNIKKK

Bst DNA polymerase [4] = target: T3, Bst DNA polymerase (Geobacillus stearothermophilus, UniProt P52026); test: PEP mismatch; assay type: biochemical, Bacillus stearothermophilus
T3 sequence (P52026 289-876 limits assumed): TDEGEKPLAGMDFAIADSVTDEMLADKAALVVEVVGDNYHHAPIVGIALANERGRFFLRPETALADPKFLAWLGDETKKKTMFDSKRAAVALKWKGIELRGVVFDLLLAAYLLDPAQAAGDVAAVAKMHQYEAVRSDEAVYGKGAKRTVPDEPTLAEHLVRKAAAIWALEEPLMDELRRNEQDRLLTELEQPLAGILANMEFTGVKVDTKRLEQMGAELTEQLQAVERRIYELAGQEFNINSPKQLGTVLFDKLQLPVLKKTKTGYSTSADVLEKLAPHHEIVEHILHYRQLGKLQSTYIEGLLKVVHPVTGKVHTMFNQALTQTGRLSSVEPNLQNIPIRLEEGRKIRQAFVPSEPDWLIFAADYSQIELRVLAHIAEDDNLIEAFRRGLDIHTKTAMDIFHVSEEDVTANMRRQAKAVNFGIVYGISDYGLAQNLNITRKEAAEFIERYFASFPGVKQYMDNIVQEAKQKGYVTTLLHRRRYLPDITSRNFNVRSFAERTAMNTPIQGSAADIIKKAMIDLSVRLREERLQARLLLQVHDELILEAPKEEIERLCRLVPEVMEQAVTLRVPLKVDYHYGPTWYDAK

AmpliTaqFS = conditions: F667Y mutation in AmpliTaqFS; cited from earlier work
Bst DNA polymerase [5] = target: T3, Bst DNA polymerase; test: PEP termination assay; assay type: biochemical, Bacillus stearothermophilus
Taq DNA polymerase = Taq DNA polymerase (Thermus aquaticus, UniProt P19821); test: PEP termination assay; assay type: biochemical, Thermus aquaticus YT-1
Taq DNA polymerase, sequence (P19821 whole entry): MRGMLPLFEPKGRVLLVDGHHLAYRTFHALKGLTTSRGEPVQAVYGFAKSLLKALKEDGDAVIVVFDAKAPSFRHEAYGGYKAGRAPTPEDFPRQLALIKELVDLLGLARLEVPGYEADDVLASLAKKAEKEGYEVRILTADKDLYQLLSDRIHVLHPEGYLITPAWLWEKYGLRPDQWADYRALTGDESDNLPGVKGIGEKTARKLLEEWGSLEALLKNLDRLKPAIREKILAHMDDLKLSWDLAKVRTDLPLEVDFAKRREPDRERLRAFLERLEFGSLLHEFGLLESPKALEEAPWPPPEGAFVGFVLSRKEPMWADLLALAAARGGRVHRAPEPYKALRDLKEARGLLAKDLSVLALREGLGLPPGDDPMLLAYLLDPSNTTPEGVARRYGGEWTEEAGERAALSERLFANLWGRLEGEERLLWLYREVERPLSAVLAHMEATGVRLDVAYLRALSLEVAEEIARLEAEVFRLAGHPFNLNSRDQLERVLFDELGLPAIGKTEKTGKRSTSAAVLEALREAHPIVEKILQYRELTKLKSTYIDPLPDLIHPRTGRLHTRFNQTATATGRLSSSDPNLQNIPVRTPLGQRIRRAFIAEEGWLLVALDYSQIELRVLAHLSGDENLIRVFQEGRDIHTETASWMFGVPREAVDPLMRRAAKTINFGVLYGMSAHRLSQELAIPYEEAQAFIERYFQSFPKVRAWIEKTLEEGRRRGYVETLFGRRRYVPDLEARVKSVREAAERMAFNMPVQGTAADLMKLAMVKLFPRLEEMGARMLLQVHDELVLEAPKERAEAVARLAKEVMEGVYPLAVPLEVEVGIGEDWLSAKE

[6] = target: AmpliTaqFS DNA polymerase (Thermus aquaticus, UniProt P19821, F667Y/G46D); test: PEP termination assay; assay type: biochemical, Thermus aquaticus YT-1
AmpliTaqFS DNA polymerase, sequence (P19821 whole entry G46D/F667Y): as the sequence (P19821 whole entry) above, with G46D, F667Y counted along it

Bst DNA polymerase [7] = target: T3, Bst DNA polymerase; test: Five-base CRT sequencing experiment on solid support; assay type: biochemical, Bacillus stearothermophilus
[8] = Klenow(exo−), ratio of IC50 values

Nc1ncnc2c1ncn2[C@H]1CC[C@@H](COP(=O)(O)OP(=O)(O)OP(=O)(O)O)O1 [ddATP, 2′,3′-dideoxyadenosine triphosphate, reference compound]
IC50 [1]: 29 ± 5 nM | Incorporation bias ddATP/dATP [1, 8]: 18 | IC50 [2]: 550 ± 40 nM | IC50 [3]: 3400 ± 400 nM | Mismatch incorporation (Bst DNA polymerase [4]; final concentration of 500 μM (data not shown)): did not show mismatch incorporation | Ratio ddATP over dATP (AmpliTaqFS): 0.59

O=[N+]([O-])c1ccccc1CNc1ncnc2c1ncn2[C@H]1C[C@H](O)[C@@H](COP(=O)(O)OP(=O)(O)OP(=O)(O)O)O1 [Compound IIIc, N^6-(2-Nitrobenzyl)-2’-deoxyadenosine-5’-triphosphate]
Incorporation bias Cpd IIIc/dATP [1, 8]: 2.7 | Incorporation bias Cpd IIIc/ddATP [1, 8]: 0.15 | IC50 [2]: 2.1 ± 0.2 nM | IC50 [3]: 11 ± 0.6 nM | IC50 (Bst DNA polymerase [5]): 10 nM | % 1st Base (Bst DNA polymerase [5]; Bst, 25× IC50, oligoTemplate-3): 99.1 ± 0.3% | % 2nd Base (Bst DNA polymerase [5]; Bst, 25× IC50, oligoTemplate-3): <0.1% | % Primer (Bst DNA polymerase [5]; Bst, 25× IC50, oligoTemplate-3): 0.9 ± 0.3% | Extension / termination of DNA synthesis on 10-thymidine template (Bst DNA polymerase [5]; Bst, at 25× its IC50 value): efficiently incorporated and terminated Bst DNA synthesis at the first-base position | IC50 (Taq DNA polymerase): 300 nM | % 1st Base (Taq DNA polymerase; Taq, 25× IC50, oligoTemplate-3): 98.7 ± 0.4% | % 2nd Base (Taq DNA polymerase; Taq, 25× IC50, oligoTemplate-3): <0.1% | % Primer (Taq DNA polymerase; Taq, 25× IC50, oligoTemplate-3): 1.3 ± 0.4% | IC50 [6]: 350 nM | Discrimination ratio, cytosine–adenine mismatch over complement thymidine base (Bst DNA polymerase [4]; Bst, C template base (oligoTemplate)): 1100 fold | Nucleotide discrimination, IC50 of mismatched versus matched bases (Bst DNA polymerase [4]; Bst, mismatched template bases A, C or G): greater than two orders of magnitude | Share of total signal derived from the correct +1 product (Bst DNA polymerase [7]): ≥ 80% | Estimated signal S (Bst DNA polymerase [7]; S = (Ceff)^RL, five-base read): 68.4% | Signal for the correct +1 product (T × C) (Bst DNA polymerase [7]; at cycle five): 40% | Incorporation efficiency (I) (Bst DNA polymerase [7]; first cycle, on a solid support, 250 nM, Bst): 98.6% | Deprotection efficiency (D) (Bst DNA polymerase [7]; first cycle, on a solid support, 365 nm light): 94% | Cycle efficiency (Ceff) (Bst DNA polymerase [7]; first cycle, product of I and D, on a solid support): 92.7%

From paper PMC2095803 (Nucleic Acids Research, 2007)
